Here are results for 17 compounds from patent US12485132B2, “GPX4 inhibitors and senolytic compounds and uses thereof” (Rubedo Life Sciences, Inc., priority 2023, dated 2025).

Assay [1] relates to senescent A549 cells. Briefly: Senescence assay: viability of senescent A549 cells. The note with it: Homo sapiens, 24-72 hours incubation, viability by CellTiter-Glo or XTT, read-out: Absolute IC50 average A549_SEN IC50. Format: cell-based. On the procedure: (§1) Cells were maintained in DMEM media (high glucose, 4 mM L-glutamine, no sodium pyruvate) supplemented with 10% fetal bovine serum in a humidified incubator at 37° C. with 5% carbon dioxide. Senescence was induced via treatment with a sublethal concentration of chemotherapy (bleomycin, gemcitabine, doxorubicin, 5-fluorouridine), followed by a rest period without chemotherapy similarly to what is reported by others in the field (e.g., Aoshiba et al., 2003 Eur Respir J 22:436-443). Senescence was qualified by low EdU (5-ethynyl-2′-deoxyuridine) incorporation and high SA-β-Gal (senescence-associated beta-galactosidase) staining compared to proliferating untreated cells. Senescent cells were plated into 96-well plates at a density of 5-15,000 cells/well. The next day, compounds were added in duplicate across ten different concentrations spanning roughly four Log10 units. Cells were incubated with the compounds for 24-72 hours, at which point viability was quantified using CellTiter-Glo (Promega) or XTT (R&D Systems). The viability for treated cells was determined relative to untreated control cells. The log of the compound concentration vs. normalized mean viability was fit to a four parameters Hill function with variable slope. The bottom was constrained to be greater than zero. The X mean value for Y=50 was interpolated to determine the absolute IC50. The results in Table 2 indicate that many of the compounds are active in cells and can induce a dose dependent decrease in the viability of senescent HEPG2 and A549 cells.
(In general: Cellular ATP, detected with luciferase, serves as a proxy for viable cell number.)

Assay [2] concerns senescent HEPG2 cells. Briefly: Senescence assay: viability of senescent HEPG2 cells. The class given is cell-based. The note with it: Homo sapiens, 24-72 hours incubation, viability by CellTiter-Glo or XTT, read-out: Absolute IC50 average HEPG2_SEN IC50. On the procedure:
as §1

The IC50 is the concentration that gives 50% inhibition.

Take `C#CC(F)(F)[C@]1(O)CC[C@H]2[C@@H]3CCC4=C/C(=N/NC(=O)[C@H]5C[C@H](O)C5)CCC4=C3[C@@H](c3ccc(OCC(F)(F)F)cc3)C[C@@]21C` [Compound 71, trans-N′-((8S,11R,13S,14S,17S)-17-(1,1-difluoroprop-2-yn-1-yl)-17-hydroxy-13-methyl-11-(4-(2,2,2-trifluoroethoxy)phenyl)-1,2,6,7,8,11,12,13,14,15,16,17-dodecahydro-3H-cyclopenta[a]phenanthren-3-ylidene)-3-hydroxycyclobutane-1-carbohydrazide]: the IC50 in assay [1] lay within 10 to 100 nM.

Consider `C#CC(F)(F)[C@]1(O)CC[C@H]2[C@@H]3CCC4=C/C(=N/NC(=O)NC5CC5)CCC4=C3[C@H](c3ccc(OCC(F)(F)F)cc3)C[C@@]21C` [Compound 55, (E)-N-cyclopropyl-2-((8S,11S,13S,14S,17S)-17-(1,1-difluoroprop-2-yn-1-yl)-17-hydroxy-13-methyl-11-(4-(2,2,2-trifluoroethoxy)phenyl)-1,2,6,7,8,11,12,13,14,15,16,17-dodecahydro-3H-cyclopenta[a]phenanthren-3-ylidene)hydrazine-1-carboxamide], for which the IC50 in assay [1] lay within 10 to 100 nM.

In the case of `C#CC(F)(F)[C@]1(O)CC[C@H]2[C@@H]3CCc4cc(OCCN5CCOCC5)ccc4C3[C@@H](c3ccc(S(=O)(=O)C4CC4)cc3)C[C@@]21C` (stereo partly drawn) [Compound 77, (8S,11S,13S,14S,17S)-11-(4-(cyclopropylsulfonyl)phenyl)-17-(1,1-difluoroprop-2-yn-1-yl)-13-methyl-3-(2-morpholinoethoxy)-7,8,9,11,12,13,14,15,16,17-decahydro-6H-cyclopenta[a]phenanthren-17-ol], the IC50 in assay [1] is at least 1000 nM.

Take `C#CC(F)(F)[C@]1(O)CC[C@H]2[C@@H]3CCC4=CC(=O)CCC4=C3[C@@H](c3ccc(OCC(F)(F)F)cc3)C[C@@]21C` [Compound 53, (8S,11R,13S,14S,17S)-17-(1,1-difluoroprop-2-yn-1-yl)-17-hydroxy-13-methyl-11-(4-(2,2,2-trifluoroethoxy)phenyl)-1,2,6,7,8,11,12,13,14,15,16,17-dodecahydro-3H-cyclopenta[a]phenanthren-3-one]: in assay [1], the IC50 is 10 to 100 nM.

On to `C#CC(F)(F)[C@]1(O)CC[C@H]2[C@@H]3CCC4=C/C(=N/OCCN5CCNCC5)CCC4=C3[C@@H](c3ccc(C4CC4)cc3)C[C@@]21C` [Compound 7, (8S,11R,13S,14S,17S,E)-11-(4-cyclopropylphenyl)-17-(1,1-difluoroprop-2-yn-1-yl)-17-hydroxy-13-methyl-1,2,6,7,8,11,12,13,14,15,16,17-dodecahydro-3H-cyclopenta[a]phenanthren-3-one O-(2-(piperazin-1-yl)ethyl)oxime], for which, in assay [1], the IC50 lay in the range of 10 to 100 nM.

`C#CC(F)(F)[C@]1(O)CC[C@H]2[C@@H]3CCC4=CC(=O)CCC4=C3[C@H](c3ccc(OCC4(C)CCC4)cc3)C[C@@]21C` [Compound 60, (8S,11S,13S,14S,17S)-17-(1,1-difluoroprop-2-yn-1-yl)-17-hydroxy-13-methyl-11-(4-((1-methylcyclobutyl)methoxy)phenyl)-1,2,6,7,8,11,12,13,14,15,16,17-dodecahydro-3H-cyclopenta[a]phenanthren-3-one]: in assay [1], the IC50 was 0.1 to 10 nM.

As to `C#CC(F)(F)[C@]1(O)CC[C@H]2[C@@H]3CCC4=C/C(=N/NC(=O)NCC5CC5)CCC4=C3[C@H](c3ccc(S(=O)(=O)C4CC4)cc3)C[C@@]21C` [Compound 62, (E)-N-(cyclopropylmethyl)-2-((8S,11S,13S,14S,17S)-11-(4-(cyclopropylsulfonyl)phenyl)-17-(1,1-difluoroprop-2-yn-1-yl)-17-hydroxy-13-methyl-1,2,6,7,8,11,12,13,14,15,16,17-dodecahydro 3H-cyclopenta[a]phenanthren-3-ylidene)hydrazine-1-carboxamide], the IC50 in assay [1] fell in the range of 10 to 100 nM.

On to `C#CC(F)(F)[C@]1(O)CC[C@H]2[C@@H]3CCC4=CC(=N[N+](C)(C)C)CCC4=C3[C@H](c3ccc(C4CC4)cc3)C[C@@]21C` [Compound 66, 2-((8S,11S,13S,14S,17S)-11-(4-cyclopropylphenyl)-17-(1,1-difluoroprop-2-yn-1-yl)-17-hydroxy-13-methyl-1,2,6,7,8,11,12,13,14,15,16,17-dodecahydro-3H-cyclopenta[a]phenanthren-3-ylidene)-1,1,1-trimethylhydrazin-1-ium], for which, in assay [1], the IC50 lay in the range of 100 to 1000 nM.

Regarding `C#CC(F)(F)[C@]1(O)CC[C@H]2[C@@H]3CCC4=CC(=O)CCC4=C3[C@H](c3ccc(OCc4ccc(S(=O)(=O)C(F)(F)F)cc4)cc3)C[C@@]21C` [Compound 57, (8S,11S,13S,14S,17S)-17-(1,1-difluoroprop-2-yn-1-yl)-17-hydroxy-13-methyl-11-(4-((4-((trifluoromethyl)sulfonyl)benzyl)oxy)phenyl)-1,2,6,7,8,11,12,13,14,15,16,17-dodecahydro-3H-cyclopenta[a]phenanthren-3-one], in assay [1], the IC50 was in the range of 10 to 100 nM.

In the case of `C#CC(F)(F)[C@]1(O)CC[C@H]2[C@@H]3CCC4=C/C(=N/OCCN)CCC4=C3[C@H](c3ccc(C4CC4)cc3)C[C@@]21C` [Compound 68, 2-((((8S,11S,13S,14S,17S,E)-11-(4-cyclopropylphenyl)-17-(1,1-difluoroprop-2-yn-1-yl)-17-hydroxy-13-methyl-1,2,6,7,8,11,12,13,14,15,16,17-dodecahydro-3H-cyclopenta[a]phenanthren-3-ylidene)amino)oxy)ethan-1-aminium chloride], the IC50 in assay [1] fell in the range of 10 to 100 nM.

On to `C#CC(F)(F)[C@]1(O)CC[C@H]2[C@@H]3CCC4=C(Cl)C(=O)CCC4=C3[C@H](c3ccc(C4CC4)cc3)C[C@@]21C` [Compound 52, (8S,11S,13S,14S,17S)-4-chloro-11-(4-cyclopropylphenyl)-17-(1,1-difluoroprop-2-yn-1-yl)-17-hydroxy-13-methyl-1,2,6,7,8,11,12,13,14,15,16,17-dodecahydro-3H-cyclopenta[a]phenanthren-3-one], for which the IC50 in assay [1] lay in the range of 10 to 100 nM.

As to `C#CC(F)(F)[C@]1(O)CC[C@H]2[C@@H]3CCC4=C/C(=N/OCCOC)CCC4=C3[C@@H](c3ccc(C4CC4)cc3)C[C@@]21C` [Compound 3, (8S,11R,13S,14S,17S,E)-11-(4-cyclopropylphenyl)-17-(1,1-difluoroprop-2-yn-1-yl)-17-hydroxy-13-methyl-1,2,6,7,8,11,12,13,14,15,16,17-dodecahydro-3H-cyclopenta[a]phenanthren-3-one O-(2-methoxyethyl)oxime], in assay [2], the IC50 lay within 10 to 100 nM.

Regarding `C#CC(F)(F)[C@]1(O)CC[C@H]2[C@@H]3CCC4=C/C(=N/NC(=O)O[C@@H]5O[C@@H](C)[C@@H](O)[C@@H](O)[C@@H]5O)CCC4=C3[C@H](c3ccc(C4CC4)cc3)C[C@@]21C` [Compound 31, (2S,3S,4R,5S,6S)-3,4,5-trihydroxy-6-methyltetrahydro-2H-pyran-2-yl (E)-2-((8S,11S,13S,14S,17S)-11-(4-cyclopropylphenyl)-17-(1,1-difluoroprop-2-yn-1-yl)-17-hydroxy-13-methyl-1,2,6,7,8,11,12,13,14,15,16,17-dodecahydro-3H-cyclopenta[a]phenanthren-3-ylidene)hydrazine-1-carboxylate], in assay [2], the IC50 fell in the range of 10 to 100 nM.

Take `C#CC(F)(F)[C@]1(O)CC[C@H]2[C@@H]3CCC4=CC(=O)CCC4=C3[C@@H](c3ccc(OCC4(C)COC4)cc3)C[C@@]21C` [Compound 72, (8S,11R,13S,14S,17S)-17-(1,1-difluoroprop-2-yn-1-yl)-17-hydroxy-13-methyl-11-(4-((3-methyloxetan-3-yl)methoxy)phenyl)-1,2,6,7,8,11,12,13,14,15,16,17-dodecahydro-3H-cyclopenta[a]phenanthren-3-one]: in assay [1], the IC50 fell in the range of 10 to 100 nM.

Turning to `C#CC(F)(F)[C@]1(O)CC[C@H]2[C@@H]3CCC4=C/C(=N/NC(=O)CO)CCC4=C3[C@H](c3ccc(C4CC4)cc3)C[C@@]21C` [Compound 37, N′-((8S,11S,13S,14S,17S,E)-11-(4-cyclopropylphenyl)-17-(1,1-difluoroprop-2-yn-1-yl)-17-hydroxy-13-methyl-1,2,6,7,8,11,12,13,14,15,16,17-dodecahydro-3H-cyclopenta[a]phenanthren-3-ylidene)-2-hydroxyacetohydrazide], the IC50 in assay [2] is 0.1 to 10 nM.

For the compound `C#CC(F)(F)[C@]1(O)CC[C@H]2[C@@H]3CCC4=CC(=O)CCC4=C3[C@H](c3ccc(OS(=O)(=O)C(F)(F)F)cc3)C[C@@]21C` [Compound 63, 4-((8S,11S,13S,14S,17S)-17-(1,1-difluoroprop-2-yn-1-yl)-17-hydroxy-13-methyl-3-oxo-2,3,6,7,8,11,12,13,14,15,16,17-dodecahydro-1H-cyclopenta[a]phenanthren-11-yl)phenyl trifluoromethanesulfonate], the IC50 in assay [1] fell in the range of 10 to 100 nM.

Take `C#CC(F)(F)[C@]1(O)CC[C@H]2[C@@H]3CCC4=C(Cl)C(=O)CCC4=C3[C@H](c3ccc(OCC(F)(F)F)cc3)C[C@@]21C` [Compound 59, (8S,11S,13S,14S,17S)-4-chloro-17-(1,1-difluoroprop-2-yn-1-yl)-17-hydroxy-13-methyl-11-(4-(2,2,2-trifluoroethoxy)phenyl)-1,2,6,7,8,11,12,13,14,15,16,17-dodecahydro-3H-cyclopenta[a]phenanthren-3-one]: the IC50 in assay [1] was in the range of 10 to 100 nM.
